What is called melting point is the temperature of the solid-liquid transition.

Our source for the melting point values is a melting point compilation (Tetko et al.; mined from patent text by program, amines drawn as free bases though some values may be those of a salt).

Compound `CCCCCOC(=O)C1CC(Br)=NN1c1ncccc1Cl` (configuration not stated) registered a melting point of 39 to 42 °C.
Compound `CN(C)c1ccc(C2(c3ccc(N(C)C)cc3N(C)C)OC(=O)c3ccc(N(C)C)cc32)cc1` (configuration not stated) had a melting point of 222 to 225 °C.
The result for `NC(=O)Cc1nnc(S)o1` reads 160 to 163 °C.
The result for `O=C(O)COc1ccc(SCc2ccc(OC3CCc4cc(Cl)ccc43)cc2)c2c1CCC2` (configuration not stated) reads 169 to 170 °C; that for `Brc1ccc(-c2cc3nccnc3[nH]2)cc1`, 326 to 329 °C.
In the case of `Cc1cc(-c2c(-c3ccc(F)cc3)ncn2CC2CC2)ccn1` it was 141 to 142 °C.
With `CO/C=C(/C(=O)OC)c1ccccc1CSc1nc2ccccc2s1`, the melting point is 77 to 78 °C.
`N=C(N)NCCCCCC(=O)Oc1ccc2cc(C(=N)N)ccc2c1` displayed a melting point of 136 °C.
`Cn1nc2ccccc2c1C(=O)NC1CCN(CCCc2ccc(F)cc2)CC1` came in with a melting point of 162 to 165 °C.
In the case of `O=C(O)c1ccc(N2CCOCC2)cc1C(=O)O` it was 178 to 180 °C.
As for `CCOc1cc2nc(NC)nc(-c3cccc(Br)c3)c2cc1OCC`, the melting point is 130 to 132 °C.
In the case of `COCc1c(N2CCN(C)CC2)c(F)cc2c(=O)c(C(=O)OC)cn(C3CC3)c12` it was 200 to 204 °C.
`Oc1ccc2c(c1O)OCC(c1cccc(C(F)(F)F)c1)C2` (configuration not stated): the melting point lay within 99 to 100 °C.
For `CCOC(=O)c1cn(Cc2cnsn2)c2cc(F)c(F)cc2c1=O`, the melting point lay in the range of 198 to 201 °C.
In the case of `Fc1cccc(SCc2nnc(-c3ccc4c(c3)CCO4)o2)c1` it was 55 to 56 °C; in that of `CCCSCC(=O)NNC(=O)N1Cc2ccccc2Oc2ccc(Cl)cc21`, 78 to 81 °C.
Consider `CSc1[nH]c(C(C)C)nc(=O)c1C#N`, for which the melting point was above 260 °C.
The result for `O=C(O)c1ccc2c(c1)Cc1ccccc1O2` reads 298 to 299 °C; that for `CCOC(=O)C(=O)Nc1ccc(S(N)(=O)=O)cc1[N+](=O)[O-]`, 193 to 195 °C; that for `COc1c(CBr)c(OC)c(CBr)c(OC)c1CBr`, 126 °C.
Compound `Cc1[nH]c(=O)c(C(F)(F)C(F)(F)F)c2c1CC(c1ccncc1)CC2` (configuration not stated) showed a melting point of 265 to 300 °C.
`CNc1ccc(C23CC2C(=O)N(C)C3=O)cc1` (configuration not stated) came in with a melting point of 128 to 129 °C.
The compound `O=C(c1ccc(I)cc1)C1(c2ccccc2F)CO1` (configuration not stated) showed a melting point of 75 to 76 °C.
On to `CNc1nc2ccccc2cc1[N+](=O)[O-]`, for which the melting point worked out at 160 °C.
In the case of `O=C(NCCCCCCO)OC1CCN(C(=O)Oc2ccc(Oc3ccccc3)cc2)CC1` it was 69 to 72 °C; in that of `CCOC(=O)[C@H](CSCc1ccccc1)NC(=O)C(C)(C)NC(=O)[C@@H](S)C(C)C`, 87 to 91 °C.
In the case of `N#Cc1ccc(N(Cc2ccc(OS(N)(=O)=O)cc2)n2cnnc2)cc1-c1ccoc1` it was 195 to 196 °C.
The result for `O=C(Cc1cccc(Cl)c1F)c1ccc(F)c(Cl)c1` reads 109 to 111 °C; that for `COc1ccc(CN2CCN(CCCN3CCN(Cc4ccc(OC)cc4)CC3)CC2)cc1`, 86 to 87 °C; that for `ClCc1cc(-c2ccccc2)nc2ccccc12`, 79 °C.
In turn, `N#Cc1cccc(-c2cccs2)n1` came in with a melting point of 88.2 to 88.6 °C.
As for `CN1C(=O)[C@](C)(C(=O)O)Oc2ccccc21`, the melting point was in the range of 139 to 142 °C.
The result for `CCOC(=O)NN=Cc1nc(-c2ccccc2)[nH]c1C` reads 209 to 211 °C; that for `FC(F)(F)c1ccc(-c2nc(Oc3csc(C(F)(F)F)c3)cc(Oc3csc(C(F)(F)F)c3)n2)cc1`, 93 to 95 °C.
`OC(c1ccccc1)(c1cccs1)C1CCN(CCc2ccccc2)CC1` (configuration not stated) showed a melting point of 143 to 144 °C.
The compound `CON=C(C(=O)O)c1nc(NC=O)ccc1Cl` displayed a melting point of 151 to 154 °C.
`O=C1OC[C@H](c2ccccc2)N1C(=O)C1C=C1` yielded a melting point of 118 to 119 °C.
For `O=C1c2ccc3cc(C(=O)N4CCN(Cc5ccccc5)CC4)cnc3c2N=CC1[N+](=O)[O-]` (configuration not stated), the melting point is 213 to 216 °C.
Compound `CCC1(CC)c2cc(CBr)c(CBr)cc2C(CC)(CC)N1Cc1ccccc1` came in with a melting point of 164 to 166 °C.
In the case of `C=CCOc1ccc(C(=O)C=Cc2cc(OC)ccc2OC)cc1` it was 86 to 87 °C.
`CCOc1cc2c3cc(OCC)c(OCC)cc3c3c(OC)ccc(OC)c3c2cc1OCC`: the melting point fell in the range of 157 to 158 °C.
The result for `O=c1oc2ccccc2n1CCCCl` reads 62 to 64 °C.
The result for `CC(=O)OC1C(N2CCCCC2)CC2C3CCC4CCC(N5CCCCC5)CC4(C)C3CCC21C` (configuration not stated) reads 156 to 161 °C; that for `CC(=O)n1c(=O)n(-c2ccccc2)c(=O)n1C(C)=O`, 169 to 170 °C; that for `COC(=O)C1=C(C)N=C(OC)N(C(=O)Oc2ccc([N+](=O)[O-])cc2)C1c1ccc(F)c(F)c1` (configuration not stated), 172 to 174 °C.
With `Cc1ccc2nc(-c3ccccc3)cc(Cl)c2c1`, the melting point fell in the range of 90 to 93 °C.
In the case of `CN1C(=O)Cc2cc(C(=O)[C@H]3CC[C@H]3C(=O)O)ccc21` (relative stereo) it was 210 to 212 °C; in that of `C[C@H](N)Cn1ncc2ccc3oc(C(=O)NCCCN4CCCC4=O)cc3c21`, 82 °C; in that of `O=C1NCCN1c1ccc(S(=O)(=O)Nc2ccc(OC(F)F)cc2)cc1`, 198 to 200 °C.
In the case of `CCC1(CC)OC(=O)c2cc([N+](=O)[O-])ccc21` it was 98.5 to 100 °C; in that of `Cc1ccc2c(c1Cl)S(=O)(=O)NCN2C1CC1`, 230 to 232 °C.
The compound `O=C(Oc1cc(/C=C/c2ccc(O)cc2)cc(OC(=O)c2cc(O)c(O)c(O)c2)c1)c1cc(O)c(O)c(O)c1` had a melting point of 210 to 212 °C.
In the case of `COCCOC(=O)N1c2cc(Cl)ccc2NC(=O)[C@@H]1C`, the melting point fell in the range of 93 to 94 °C.
In the case of `COc1ccc2c(ccn2-c2cccc(C#N)c2)c1` it was 113 to 115 °C.
Consider `N#CCN1CC[C@@H](NCc2ccccc2)[C@H](O)C1` (relative stereo), for which the melting point was found to be 113 °C.
In the case of `O=S1(=O)c2ccccc2Oc2ccccc21` it was 145 to 146 °C; in that of `O=C(O)c1cnn2c(C(F)F)cc(-c3ccc(C(F)(F)F)c(F)c3)nc12`, 233 °C; in that of `O=C(Nc1cnc2sc(CO)nc2c1)c1cc2cc(F)ccc2n1Cc1cccc(F)c1`, 225 to 226 °C.
`N#Cc1c(C(F)(F)F)nn(-c2c(Cl)cc(S(=O)(=O)C(F)(F)F)cc2Cl)c1[N+](=O)[O-]` returned a melting point of 168 to 169 °C.
The result for `OC(CNC1CCc2ccccc2C1)COc1cccc2c1CCCC2` (configuration not stated) reads 90 to 93 °C; that for `Cc1cc(C(=O)c2cccc(Br)c2)c(O)cc1Cl`, 115 to 117 °C; that for `Nc1nc(C2CCN(C(=O)Nc3ccccc3)CC2)c2ccccc2n1`, 178 to 180 °C.
In the case of `CC(C)(NC(=O)C(CS)NC(=O)c1ccccc1)c1ccccc1` (configuration not stated) it was 169 to 173 °C; in that of `O=C(OC1c2ccccc2C(=O)N1c1ccc2ccc(Cl)nc2n1)N1CCN(C(=O)C2CCCCC2)CC1` (configuration not stated), 240 °C.
For `O=C1C(=O)N(c2cccc(C(F)(F)F)c2)C(=O)N1c1ccccc1`, the melting point is 116 °C.
The result for `O=C1c2c(-c3ccccc3)noc2CCC1CCCN1CCC(O)(c2ccc(Cl)cc2)CC1` (configuration not stated) reads 147 to 148 °C; that for `CCn1cc(O)c(=O)c2ccccc21`, 180 to 182 °C.
Take `Nc1c(Cl)cccc1SSc1cccc(Cl)c1N`: the melting point fell in the range of 87 to 88 °C.
The result for `CC(=O)Nc1cc([N+](=O)[O-])c(F)cc1Cl` reads 158 to 160 °C; that for `SC12CC3CC(CC(C3)C1)C2`, 101 to 103 °C.
`Cn1nnnc1SCCSc1ccccn1`: the melting point lay within 77 to 79.5 °C.
In the case of `CC(C)(C)OC(=O)c1ncn2c1C1C=CCN1C(=O)c1c(Cl)cccc1-2` (configuration not stated) it was 227 to 229 °C; in that of `CSC1C(=O)Nc2c(Oc3cccc4ccccc34)cccc21` (configuration not stated), 134 to 139 °C; in that of `O=C1c2ccccc2S(=O)(=O)N1CS(=O)(=O)c1c(Cl)cccc1Cl`, 201 to 203 °C.
For the compound `Cc1oc(-c2ccccc2)nc1CCOc1ccc(C[C@@H](C(=O)O)n2ccc(-c3ccccc3)c2)cc1`, the melting point lay in the range of 146 to 147 °C.
As for `CCC(=NO)c1ccccc1O`, the melting point was in the range of 88 to 90 °C.
In the case of `O=S(=O)(N[C@H]1CC[C@H](CCN2CCN(c3nccc4c3CCO4)CC2)CC1)c1ccccc1` it was 168 °C; in that of `CC(C)CCCC(C)C1CC=C2C3=C(CCC21C)C1(C)CCC(F)CC1CC3` (configuration not stated), 98.6 °C.
The result for `Cc1ccc2c(c1)c1cc(-c3ccc(Cl)cc3Cl)c(=O)n(C)c1n2CCO` reads 240 °C; that for `CN(C(Cc1ccc(O)cc1)CN1CCN(c2ccccc2)CC1)S(=O)(=O)c1cccc2cnccc12` (configuration not stated), 201 °C; that for `CCOC(=O)CCc1cc(-c2ccccc2)n(-c2ccc(S(C)(=O)=O)cc2)n1`, 96.5 to 99.1 °C.
Compound `CCCCc1noc(-c2ccc(C=CC(=O)NCC3CCCC3(C)C)cc2)n1` (configuration not stated) yielded a melting point of 144 to 145 °C.
With `COc1cc2c(Oc3cccc4[nH]ccc34)ncnc2cc1OCCCN1CCCCC1`, the melting point was 80 to 82 °C.
The result for `O=C(Cc1cccc(C(F)(F)F)c1)NCc1cccc2c1C(=O)N(C1CCC(=O)NC1=O)C2=O` (configuration not stated) reads 156 to 158 °C; that for `CC(C)c1cc(-c2ccc3c(c2)OCO3)nc2[nH]nc(N)c12`, 184 to 186 °C.
Regarding `CCCCN(C(C)=O)C1NC(=O)N(c2cccc(C(F)(F)F)c2)C(=O)N1`, the melting point lay in the range of 146 to 148 °C.
Regarding `CCOC(=O)CC1CCCc2cc(C#N)ccc21` (configuration not stated), the melting point was in the range of 45 to 47 °C.
In the case of `Cc1ccc2nc(NC(=O)c3c(Cl)cccc3Cl)cc(NN)c2c1C` it was 190 to 198 °C.
In the case of `CCOC(=O)C(=CNC1CC1)C(=O)c1cc(F)c(F)cc1Cl`, the melting point lay within 55 to 58 °C.
The result for `Oc1nc(Cl)n(-c2ccccc2)n1` reads 147 to 149 °C.
The result for `Cc1cc(-c2[nH]c3ccccc3c2C)cc(C)c1O` reads 143 to 144 °C; that for `COc1cc(C(=O)C(Br)Br)cc(OC)c1OC`, 67 to 68 °C.
